# Where “and” joins values, the source holds several entries; their conditions need not be identical. Identical values can stand only once. Like-named read-outs stand apart in the source and are kept apart here.
# How the values were obtained:
# [1] = tested on: HeLa cells; details: cited from earlier work
# [2] = tested on: HeLa cells; test: Colony formation assay; format: cell-based, human; details: for effect on cell colony formation: 2 weeks
# Description: HeLa cells were seeded in six-well plates at the density of 500/well for 24 h, and then treated with 0.1% DMSO (as control), various concentrations of compounds 4d, 4k, and 4l, respectively. The cells were incubated for 2 weeks in a 5% CO2 environment at 37°C for colony formation. The media was gently removed from each of the plates, and then each plate was washed with PBS twice. The colonies were fixed with 4% polyformaldehyde for 10 min and then wash the cells with ddH2O twice. Stain with 1 ml Crystal Violet Staining Solution (Beyotime, China) for 10 min. Wash excess crystal violet with ddH2O and allow dishes to dry. Take pictures of the plate and count the colonies.
# [3] = tested on: HeLa cells; test: Flow cytometry detection for cell apoptosis (Annexin V/PI); format: cell-based, human; details: for Q1 (flow cytometry quadrant, Figure 4A) / Q4 (flow cytometry quadrant, Figure 4A) / Q2: FITC-A+ , PE-A+ Freq. of Parent / Q3: FITC-A+ , PE-A- Freq. of Parent: Annexin V/PI; for Q2: FITC-A+ , PE-A+ Freq. of Parent / Q3: FITC-A+ , PE-A- Freq. of Parent / Q2+Q3 (column without head, sum on percent scale) / Q2+Q3 (as fraction): single samples
# Description: Cell-apoptosis analysis was carried out by flow cytometry using the Annexin V/PI apoptosis kit (Solarbio, China) according to the manufacturer’s manual. Briefly, HeLa (5 × 10^4/well) cells were seeded in 12-well plates for 24 h and then treated with 0.1% DMSO (as control) or various concentrations of compounds 4d, 4k, and 4l for 72 h, respectively. Cells were harvested, washed with PBS, and then incubated with 100 μl of 1 × Annexin V binding buffer containing 1 μl FITC Annexin V for 10 min at RT in the dark. Cells were incubated for another 5 min at room temperature (RT) in the dark after 1 μl PI was added. PBS (200 µl) was added to each tube for flow cytometry analysis (BriCyte E6). The percentages of apoptotic cells were analyzed using FlowJo soft.
# [4] = tested on: HeLa cells; test: Cell antiproliferative activity assay (CCK8); format: cell-based, human; details: Homo sapiens; for IC50: HeLa; for inhibition at 0.25 µM: 250 nM; for inhibition at 0.5 µM: 500 nM; for inhibition at 1 µM: 1000 nM; for inhibition at 2 µM: 2000 nM; for inhibition at 4 µM: 4000 nM; for inhibition at 8 µM: 8000 nM; for inhibition at 16 µM: 16000 nM
# Description: Cell antiproliferative activity was evaluated by the Cell Counting Kit-8 (CCK8, DOJINDO, Japan) assay. The cells were seeded at a density of 2,000 cells per well into 96-well microplate in 100 μl of growth medium. Cells were incubated at 37°C and 5% CO2 overnight. The next day, 100 μl per well of diluted inhibitor in growth medium was added with the final concentration from 0.1 nM to 100 μM. The cells were treated with DMSO as control. A series of dilutions are made in 0.1% DMSO in assay medium so that the final concentration of DMSO is 0.1% in all of treatments. Cells were incubated at 37°C and 5% CO2 for 48 h. Then, 10 μl of CCK8 was added to each well. The plates were incubated at 37°C for 2 h; after that, the plates were recorded by measuring absorbance at 450 nm with the reference wavelength of 630 nm using an EnVision Multilabel Reader (PerkinElmer). The IC50 values were calculated using GraphPad Prism 6.0 software and determined by the concentration causing a half-maximal percent activity. All assays were conducted with three parallel samples and three repetitions.
# [5] = 48 h, HeLa cells, CCK8, 48 h, mean ± SD, n = 3, read-out: IC50 (μM) HeLa
# [6] = HELA 2000cells/well, supplement DataSheet2, Repeat1, read-out: IC50 Repeat1
# [7] = HELA 2000cells/well, supplement DataSheet2, Repeat 2, read-out: IC50 Repeat 2
# [8] = HELA 2000cells/well, supplement DataSheet2, mean of two repeats ± SD, read-out: IC50 mean±SD
# [9] = HELA 2000cells/well, Repeat1, read-out: Inhibition (%) Repeat1
# [10] = HELA 2000cells/well, Repeat2, read-out: Inhibition (%) Repeat2
compound,measurement,setting,value
c1ccc(Cn2cc(COc3ccc(-c4nc5cc(C6=NCCN6)ccc5[nH]4)cc3)nn2)cc1 [11f],IC50,"[1]; amidino 2-substituted benzimidazoles linked to 1,2,3-triazoles, ref Raic-Malic et al., read-out: IC50 antiproliferation activities against HeLa cells",6.63 µM
"COc1ccc2c(-n3cc(-c4cc(OC)c(OC)c(OC)c4)nn3)c(C(=O)Nc3ccccc3)oc2c1 [17 g, 6-methoxy-N-phenyl-3-[4-(3,4,5-trimethoxyphenyl)-1H-1,2,3-triazol-1-yl] benzofuran-2 carboxamide]",IC50,"[1]; ref Qi et al., 2020, read-out: IC50 antiproliferative activities against HeLa cells",0.73 ± 0.67 µM
"COCCOc1cc2ncnc(Nc3cccc(-c4cn(Cc5cc(Br)cc(Br)c5)nn4)c3)c2cc1OCCOC [Compound 4d, [6,7-Bis-(2-methoxy-ethoxy)-quinazolin-4-yl]-{3-[1-(3,5-dibromo-benzyl)-1H-[1,2,3]triazol-4-yl]-phenyl}-amine]",effect on cell colony formation,[2]; 6 μM,decrease the number of colonies
same,effect on cell colony formation,[2]; 12 μM,entirely inhibited
same,Number of Colonies /well,"[2]; 12 uM, repeats 1-3",0
same,"Q1 (flow cytometry quadrant, Figure 4A)","[3]; 3 μM, 72 h",5.78%
same,"Q4 (flow cytometry quadrant, Figure 4A)","[3]; 3 μM, 72 h",84.2%
same,"Q2: FITC-A+ , PE-A+ Freq. of Parent","[3]; 3 μM, 72 h",9.25%
same,"Q3: FITC-A+ , PE-A- Freq. of Parent","[3]; 3 μM, 72 h",0.82%
same,"Q2: FITC-A+ , PE-A+ Freq. of Parent","[3]; 3 μM, 72 h, listed as e4",6.79% and 7.35% and 9.25%
same,"Q3: FITC-A+ , PE-A- Freq. of Parent","[3]; 3 μM, 72 h, listed as e4",1.73% and 1.08% and 0.82%
same,"Q2+Q3 (column without head, sum on percent scale)","[3]; 3 μM, listed as e4",8.52 and 8.43 and 10.07
same,"Q1 (flow cytometry quadrant, Figure 4A)","[3]; 6 μM, 72 h",5.52%
same,"Q4 (flow cytometry quadrant, Figure 4A)","[3]; 6 μM, 72 h",81.2%
same,"Q2: FITC-A+ , PE-A+ Freq. of Parent","[3]; 6 μM, 72 h",10.5%
same,"Q3: FITC-A+ , PE-A- Freq. of Parent","[3]; 6 μM, 72 h",2.69%
same,"Q2: FITC-A+ , PE-A+ Freq. of Parent","[3]; 6 μM, 72 h, listed as e4",8.90% and 10.1% and 10.5%
same,"Q3: FITC-A+ , PE-A- Freq. of Parent","[3]; 6 μM, 72 h, listed as e4",3.61% and 5.29% and 2.69%
same,"Q2+Q3 (column without head, sum on percent scale)","[3]; 6 μM, listed as e4",12.51 and 15.39 and 13.19
same,"Q1 (flow cytometry quadrant, Figure 4A)","[3]; 12 μM, 72 h",2.40%
same,"Q4 (flow cytometry quadrant, Figure 4A)","[3]; 12 μM, 72 h",5.68%
same,"Q2: FITC-A+ , PE-A+ Freq. of Parent","[3]; 12 μM, 72 h",86.4%
same,"Q3: FITC-A+ , PE-A- Freq. of Parent","[3]; 12 μM, 72 h",5.49%
same,"Q2: FITC-A+ , PE-A+ Freq. of Parent","[3]; 12 μM, 72 h, listed as e4",86.4% and 80.4% and 81.8%
same,"Q3: FITC-A+ , PE-A- Freq. of Parent","[3]; 12 μM, 72 h, listed as e4",5.49% and 3.94% and 3.82%
same,"cell apoptosis in HeLa cells, percentage","[3]; 12 μM, 72 h, three independent experiments",87.28%
same,"Q2+Q3 (column without head, sum on percent scale)","[3]; 12 μM, listed as e4",91.89 and 84.34 and 85.62
same,IC50,[4]; [5],7.02 ± 0.04 µM
same,IC50,[4]; [6],7.07 µM
same,IC50,[4]; [7],6.98 µM
same,IC50,[4]; [8],7.025 ± 0.0445 µM
same,inhibition at 0.25 µM,[4]; [9],9.75%
same,inhibition at 0.25 µM,[4]; [10],0%
same,inhibition at 0.5 µM,[4]; [9],13%
same,inhibition at 0.5 µM,[4]; [10],13.6%
same,inhibition at 1 µM,[4]; [9],16.9%
same,inhibition at 1 µM,[4]; [10],14%
same,inhibition at 2 µM,[4]; [9],17%
same,inhibition at 2 µM,[4]; [10],15.3%
same,inhibition at 4 µM,[4]; [9],25.3%
same,inhibition at 4 µM,[4]; [10],26.6%
same,inhibition at 8 µM,[4]; [9],53.2%
same,inhibition at 8 µM,[4]; [10],54.6%
same,inhibition at 16 µM,[4]; [9],78.2%
same,inhibition at 16 µM,[4]; [10],78.4%
"COCCOc1cc2ncnc(Nc3cccc(-c4cn(-c5cccc([N+](=O)[O-])c5)nn4)c3)c2cc1OCCOC [Compound 4m, [6,7-Bis-(2-methoxy-ethoxy)-quinazolin-4-yl]-{3-[1-(3-nitro-phenyl)-1H-[1,2,3]triazol-4-yl]-phenyl}-amine]",IC50,[4]; [5],3.79 ± 0.1 µM
same,IC50,[4]; [6],3.89 µM
same,IC50,[4]; [7],3.69 µM
same,IC50,[4]; [8],3.79 ± 0.103 µM
same,inhibition at 0.25 µM,[4]; [9],0%
same,inhibition at 0.25 µM,[4]; [10],7.86%
same,inhibition at 0.5 µM,[4]; [9],3.48%
same,inhibition at 0.5 µM,[4]; [10],5.51%
same,inhibition at 1 µM,[4]; [9],8.91%
same,inhibition at 1 µM,[4]; [10],15.1%
same,inhibition at 2 µM,[4]; [9],42.2%
same,inhibition at 2 µM,[4]; [10],42.1%
same,inhibition at 4 µM,[4]; [9],54.2%
same,inhibition at 4 µM,[4]; [10],56.2%
same,inhibition at 8 µM,[4]; [9],67.5%
same,inhibition at 8 µM,[4]; [10],66.5%
same,inhibition at 16 µM,[4]; [9],77.1%
same,inhibition at 16 µM,[4]; [10],77.2%
same,melting point,,98 to 101 °C
"CCOc1cccc(-n2cc(-c3cccc(Nc4ncnc5cc(OCCOC)c(OCCOC)cc45)c3)nn2)c1 [Compound 4n, [6,7-Bis-(2-methoxy-ethoxy)-quinazolin-4-yl]-{3-[1-(3-ethoxy-phenyl)-1H-[1,2,3]triazol-4-yl]-phenyl}-amine]","Q3: FITC-A+ , PE-A- Freq. of Parent","[3]; 3 μM, 72 h",0.75% and 1.15% and 1.24%
same,"Q2: FITC-A+ , PE-A+ Freq. of Parent","[3]; 6 μM, 72 h",21.9%
same,"Q3: FITC-A+ , PE-A- Freq. of Parent","[3]; 6 μM, 72 h",5.30% and 1.36% and 0.76%
same,Q2+Q3 (as fraction),[3]; 6 μM,0.272 and 0.3116 and 0.2626
same,"Q2: FITC-A+ , PE-A+ Freq. of Parent","[3]; 12 μM, 72 h",61.9%
same,"Q3: FITC-A+ , PE-A- Freq. of Parent","[3]; 12 μM, 72 h",2.53% and 1.19% and 1.05%
same,Q2+Q3 (as fraction),[3]; 12 μM,0.6443 and 0.5879 and 0.6565
same,IC50,[4]; [5],8.21 ± 1.05 µM
same,IC50,[4]; [6],7.21 µM
same,IC50,[4]; [7],9.31 µM
same,IC50,[4]; [8],8.21 ± 1.05 µM
same,inhibition at 0.25 µM,[4]; [9],0%
same,inhibition at 0.25 µM,[4]; [10],2.69%
same,inhibition at 0.5 µM,[4]; [9],4.33%
same,inhibition at 0.5 µM,[4]; [10],4.33%
same,inhibition at 1 µM,[4]; [9],7.26%
same,inhibition at 1 µM,[4]; [10],6.45%
same,inhibition at 2 µM,[4]; [9],12.8%
same,inhibition at 2 µM,[4]; [10],10.8%
same,inhibition at 4 µM,[4]; [9],31.2%
same,inhibition at 4 µM,[4]; [10],18.5%
same,inhibition at 8 µM,[4]; [9],51.9%
same,inhibition at 8 µM,[4]; [10],45.5%
same,inhibition at 16 µM,[4]; [9],77.1%
same,inhibition at 16 µM,[4]; [10],69.6%
same,melting point,,110 to 114 °C

# Reference: publication PMC8802806, “Synthesis and Antitumor Activity of Erlotinib Derivatives Linked With 1,2,3-Triazole” (Frontiers in Pharmacology, 2022)
